In PubChem BioAssay (NCI) one finds TGI data, which are given here for eight compounds.

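Growth conditions: 96-well plates. Treatment: test compound, 48 hours, 5 concentrations. Analysis: linear interpolation between bracketing concentrations; unreached endpoints set to highest concentration. TGI: concentration producing complete growth inhibition.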

Among the test systems are MCF7 breast; KM12 colon; SF-268 CNS; NCI-H460 lung; OVCAR-5 ovarian; DU-145 prostate; PC-3 prostate; U251 CNS; SF-539 CNS; HT29 colon; K-562 leukemia; HS 578T breast; MDA-MB-231 breast; SK-OV-3 ovarian; MDA-N; SN12C renal; NCI-H23 lung; EKVX NSCLC; HCC-2998 colon.
What all share (test): inhibition of tumour cell growth, NCI panel, 48 h

Take `COc1ccc2c(C(=O)c3c(C)n(CCN4CCOCC4)c4ccccc34)cccc2c1`: the TGI with MCF7 breast was 55.9 µM; with KM12 colon it was 68.2 µM; with SF-268 CNS, 55.4 µM; in the experiment on NCI-H460 lung, more than 100 µM; with OVCAR-5 ovarian, more than 100 µM; with DU-145 prostate, more than 100 µM. The TGI with PC-3 prostate was 96.6 µM; with U251 CNS, 52.2 µM; in the experiment on SF-539 CNS, more than 100 µM; in the experiment on HT29 colon, 64 µM; in the experiment with K-562 leukemia it was more than 100 µM; in the experiment with HS 578T breast it was 40.6 µM. Also, the TGI was 80.2 µM in the experiment with MDA-MB-231 breast; more than 100 µM with SK-OV-3 ovarian; more than 100 µM with MDA-N; more than 100 µM in the experiment with SN12C renal; more than 100 µM with NCI-H23 lung; more than 100 µM in the experiment with EKVX NSCLC.

`Clc1cccc2[nH]ncc12`: the TGI in the experiment on MCF7 breast, with KM12 colon, with NCI-H460 lung, in the experiment with OVCAR-5 ovarian, in the experiment with DU-145 prostate and with PC-3 prostate was more than 100 µM each time. Besides, the TGI in the experiment with U251 CNS, in the experiment with SF-539 CNS, in the experiment with HT29 colon, in the experiment on K-562 leukemia, in the experiment with HS 578T breast and in the experiment on MDA-MB-231 breast was more than 100 µM throughout. The TGI in the experiment on SK-OV-3 ovarian is more than 100 µM; with MDA-N it was more than 100 µM; with SN12C renal it was more than 100 µM; in the experiment with HCC-2998 colon, more than 100 µM; with EKVX NSCLC it was 95.4 µM.

For `O=S(=O)(O)c1ccc2c(N=Nc3c(O)ccc4ccccc34)cccc2c1`, the TGI in the experiment with MCF7 breast, in the experiment with KM12 colon, with SF-268 CNS, in the experiment on NCI-H460 lung, in the experiment on OVCAR-5 ovarian and with DU-145 prostate was more than 100 µM throughout. Moreover, the TGI was more than 100 µM in the experiment with PC-3 prostate; more than 100 µM with U251 CNS; more than 100 µM in the experiment on SF-539 CNS; more than 100 µM in the experiment on HT29 colon; 98.1 µM in the experiment with K-562 leukemia; more than 100 µM with HS 578T breast. Further, the TGI in the experiment with MDA-MB-231 breast, in the experiment on SK-OV-3 ovarian, in the experiment on MDA-N, with SN12C renal, in the experiment with NCI-H23 lung and in the experiment with EKVX NSCLC was more than 100 µM throughout.

For `O=C1CC(=O)NC(=NN2C(=O)/C(=C/c3ccc(Cl)cc3)N=C2c2ccccc2)N1`, the TGI in the experiment on MCF7 breast was 53.7 µM; in the experiment with KM12 colon, 27.6 µM; in the experiment with SF-268 CNS, 34.2 µM; with NCI-H460 lung it was 22.9 µM; in the experiment on OVCAR-5 ovarian it was 30.2 µM; with DU-145 prostate, more than 100 µM. The TGI in the experiment with PC-3 prostate was determined as 28.2 µM; in the experiment on U251 CNS it was 33 µM; with SF-539 CNS it was 32.4 µM; in the experiment on HT29 colon it was 31.5 µM; in the experiment on K-562 leukemia, 28 µM; in the experiment on HS 578T breast, 30.6 µM. Moreover, the TGI is 35.6 µM in the experiment on MDA-MB-231 breast; 51.8 µM in the experiment with SK-OV-3 ovarian; 30.2 µM with MDA-N; 32.3 µM in the experiment on SN12C renal; 24.2 µM with HCC-2998 colon; 31.5 µM with NCI-H23 lung.

For the compound `Cc1cc(C)nc(NC(=S)Nc2ccc(Cl)cc2)c1`, the TGI in the experiment with MCF7 breast, in the experiment with KM12 colon, in the experiment with SF-268 CNS, with NCI-H460 lung, with OVCAR-5 ovarian and in the experiment with DU-145 prostate was more than 100 µM throughout. For the same compound, the TGI with PC-3 prostate, in the experiment with U251 CNS, in the experiment with SF-539 CNS, in the experiment with HT29 colon, in the experiment with K-562 leukemia and in the experiment on HS 578T breast was more than 100 µM in each case. Besides, the TGI in the experiment on MDA-MB-231 breast, in the experiment with SK-OV-3 ovarian, in the experiment with MDA-N, in the experiment on SN12C renal and in the experiment with EKVX NSCLC was more than 100 µM in each case.

As to `COC1(c2ccccc2)NC(=S)NN=C1c1ccccc1` (configuration not stated), the TGI in the experiment with MCF7 breast is more than 100 µM; in the experiment with KM12 colon, more than 100 µM; with SF-268 CNS, more than 100 µM; in the experiment with NCI-H460 lung it was 71.6 µM; in the experiment with OVCAR-5 ovarian it was more than 100 µM; in the experiment on DU-145 prostate, more than 100 µM. The TGI was more than 100 µM with PC-3 prostate; 46.6 µM with U251 CNS; more than 100 µM in the experiment with HT29 colon; more than 100 µM in the experiment with K-562 leukemia; more than 100 µM with HS 578T breast; 70.9 µM in the experiment on MDA-MB-231 breast. For the same compound, the TGI is 78.4 µM with SK-OV-3 ovarian; 45 µM with MDA-N; 60.8 µM with SN12C renal; 37.8 µM in the experiment on HCC-2998 colon; more than 100 µM in the experiment on NCI-H23 lung; more than 100 µM in the experiment on EKVX NSCLC.

With `CCN(CCCl)c1cc(CN(C)C)cc(NC(=O)c2cc(C(=O)Nc3cc(CN(C)C)cc(N(CC)CCCl)c3)n(C)n2)c1`, the TGI in the experiment with MCF7 breast was found to be 1.38 µM; in the experiment with KM12 colon it was 0.703 µM; in the experiment on SF-268 CNS, 1.56 µM; with NCI-H460 lung, 0.4 µM; in the experiment on OVCAR-5 ovarian it was 9.36 µM; in the experiment on DU-145 prostate, 9.19 µM. In addition, the TGI in the experiment on PC-3 prostate came out at 0.492 µM; in the experiment with U251 CNS, 0.387 µM; in the experiment with SF-539 CNS, 1.63 µM; with HT29 colon, 1.02 µM; in the experiment with K-562 leukemia it was 1.12 µM; in the experiment on HS 578T breast, 1.52 µM. Moreover, the TGI in the experiment with MDA-MB-231 breast was 4.06 µM; in the experiment with SK-OV-3 ovarian, 3.3 µM; in the experiment with MDA-N it was 2.55 µM; in the experiment on SN12C renal, 2.01 µM; in the experiment on HCC-2998 colon, 2.11 µM; in the experiment on NCI-H23 lung it was 3.04 µM.

`CC(C)CCCC(C)[C@H]1CCC2[C@@H]3CCC4Cc5nc6c(nc5C[C@]4(C)C3CC[C@@]21C)CC1CC[C@@H]2C(CC[C@@]3(C)C2CC[C@@H]3O)[C@@]1(C)C6` (some centres not stated): the TGI with MCF7 breast, in the experiment with KM12 colon, with SF-268 CNS, with NCI-H460 lung, in the experiment with OVCAR-5 ovarian and in the experiment with DU-145 prostate was more than 100 µM each time. For the same compound, the TGI in the experiment on PC-3 prostate, with U251 CNS, in the experiment on SF-539 CNS, in the experiment with HT29 colon, in the experiment on K-562 leukemia and in the experiment on HS 578T breast was more than 100 µM throughout. In addition, the TGI in the experiment with MDA-MB-231 breast, with SK-OV-3 ovarian, with MDA-N, with SN12C renal, with NCI-H23 lung and in the experiment on EKVX NSCLC was more than 100 µM throughout.
